Laboratory results from patent publication US7026281B1, “Antagonistic analogs of GH-RH inhibiting IGF-I and -II” (The Administrators of the Tulane Educational Fund, priority 1998, dated 2006).
Marks after values point to notes of the source that are not given here. Square brackets hold non-standard residues; d marks the D form. Peptide text beside a SMILES is read from it. * marks the point of attachment. Phe(4-Cl) = N[C@@H](Cc1ccc(Cl)cc1)C(=O)O; hArg = N=C(N)NCCCC[C@H](N)C(=O)O; Nle = CCCC[C@H](N)C(=O)O; Abu = CC[C@H](N)C(=O)O; PhAc = O=C(Cc1ccccc1)*

Columns and labels:
Type in all cases: in vivo
[1] = test system: PC-3 human prostate cancer xenografts; test: PC-3 human prostate cancer xenografts in nude mice; conditions: 20 μg daily s.c., 21 days
Method: Male nude mice were implanted s.c. with 3 mm^3 pieces of PC-3 human hormone-independent prostate cancer tissue into both flanks. When tumors reached a volume of approx. 40–50 mm^3 the mice were divided into 3 experimental groups. The first and second groups were treated with peptides Peptide 3 and MZ-5-156, respectively, in single daily s.c. injections of 20 μg for 21 days, while the third group served as control. Tumor volumes were measured at weekly intervals, tumor weights were measured at the end of experiment.

[2] = test system: Estrogen independent MXT mouse mammary tumors; test: MXT mouse mammary tumors in BDF mice; conditions: for Tumor weights: day 18; for Number of surviving mice: groups of 10
Method: Estrogen independent MXT tumors were transplanted sc. to female BDF mice. One day after transplantation, the mice were divided into groups of 10 animals each, and the treatment was started. The mice in groups 1, 2, 3, and 4 received single injections daily of various GH-RH antagonists sc. at 20 μg dose per day for 18 days. In groups 5 and 6, the peptides were administered by Alzet osmotic pumps releasing a daily amount of 20 μg peptide. Tumors were measured regularly, and tumor volume was calculated. The mice were sacrificed on day 18 and tumor weights were measured.

[3] = test system: MDA-MB-468 human breast cancer xenografts; test: MDA-MB-468 human breast cancer xenografts in nude mice; conditions: 20 μg daily s.c., 5 weeks
Method: Nude mice bearing MDA-MB-468 hormone-independent human breast cancer xenografts were divided into groups of 10 animals each. The treated groups received single daily s.c. injections of 20 μg of GH-RH antagonists. One group was treated with Peptide 1, a second group was treated with MZ-5-156 for comparison. The control group was injected with the vehicle solvent. The treatment was continued for 5 weeks. Tumors were measured once a week and tumor volume was calculated. The mice were sacrificed at the end of experiment and tumor weights were measured.

[4] = test system: HT-29 human colon cancers; test: HT-29 human colon cancer xenografts in nude mice; conditions: 20 μg daily sc., 6 weeks
Method: HT-29 human colon cancers were transplanted sc. into male nude mice. 19 days after transplantation, the mice were divided into groups of 10 animals each, and the treatment was started. The mice received single daily injections of various GH-RH antagonists sc. at 20 μg dose per day for 6 weeks. Tumors were measured regularly, and tumor volume was calculated. The mice were sacrificed at the end of experiment and tumor weights were measured.

[5] = test system: U87MG human glioblastoma xenografts; test: U87MG human glioblastoma xenografts in nude mice; conditions: 20 μg daily s.c., 28 days
Method: Mice were implanted s.c. with U87MG glioblastomas and when tumors reached a volume of approx. 70 mm^3 the mice were randomly divided into 2 experimental groups. One group was treated with Peptide 1 in single daily s.c. injections of 20 μg for 28 days, while the other group served as control.

[6] = Alzet osmotic pump, 20 μg daily
[7] = single daily sc. injections, 20 μg per day

| Structure (SMILES) | Inhibition in tumor volume [1] [%] | Inhibition in tumor weight [1] [%] | Final tumor volume (mm^3) ([1]; nude mice) | Tumor weight ([1]; nude mice) [mg] | Tumor volume (mm^3) On day 14 [2, 6] | Tumor volume (mm^3) On day 18 [2, 6] | Tumor weights [2, 6] [mg] | Number of surviving mice [2, 6] | Tumor volume (mm^3) On day 14 [2, 7] | Tumor volume (mm^3) On day 18 [2, 7] | Tumor weights [2, 7] [mg] | Number of surviving mice [2, 7] | Final tumor volume (mm^3) ([3]; nude mice) | Tumor weight ([3]; nude mice) [mg] | Number of regressed tumors ([3]; groups of 10) | Inhibitory effect on HT-29 human colon cancers (in words) [4] | Final tumor volume (mm^3) ([4]; nude mice) | Tumor weight ([4]; nude mice) [mg] | Final tumor volume (mm^3) [5] | Tumor weight [5] [g] |
| --- | --- | --- | --- | --- | --- | --- | --- | --- | --- | --- | --- | --- | --- | --- | --- | --- | --- | --- | --- | --- |
| CCCC[C@H](NC(=O)[C@@H](NC(=O)[C@H](CC(=O)O)NC(=O)[C@H](CCC(N)=O)NC(=O)[C@H](CC(C)C)NC(=O)[C@H](CC(C)C)NC(=O)[C@H](CCCCN)NC(=O)[C@H](CCCNC(=N)N)NC(=O)[C@H](C)NC(=O)[C@H](CO)NC(=O)[C@H](CC(C)C)NC(=O)[C@H](CCC(N)=O)NC(=O)[C@H](CC)NC(=O)[C@H](CC(C)C)NC(=O)[C@@H](NC(=O)[C@H](CCCCN)NC(=O)[C@H](CCCNC(=N)N)NC(=O)[C@H](Cc1ccc(OC)cc1)NC(=O)[C@H](CCCCNC(=N)N)NC(=O)[C@H](CC(N)=O)NC(=O)[C@@H](NC(=O)[C@H](Cc1ccc(Cl)cc1)NC(=O)[C@@H](NC(=O)[C@H](C)NC(=O)[C@H](CC(=O)O)NC(=O)[C@@H](CCCNC(=N)N)NC(=O)[C@H](Cc1ccc(O)cc1)NC(=O)Cc1ccccc1)[C@@H](C)CC)[C@@H](C)O)C(C)C)[C@@H](C)CC)C(=O)N[C@H](CCCNC(=N)N)C(=O)N[C@@H](CCCCNC(=N)N)C(N)=O [Peptide 3, [PhAc^0, D-Arg^2, Phe(pCl)^6, Har^9, Tyr(Me)^10, Abu^15, Nle^27, D-Arg^28, Har^29]hGH-RH(1–29)NH2] (PhAc-Y[dR]DAI[Phe(4-Cl)]TN[hArg]Y(Me)RKVL[Abu]QLSARKLLQDI[Nle][dR][hArg]-NH2) | 65 | 62 | 107.9 ± 12.5* mm^3 | 73.7 ± 11.9 | 1688 ± 220** mm^3 | 4272 ± 295** mm^3 | 5939 ± 453 | 8 | 1902 ± 349** mm^3 | 3465 ± 607** mm^3 | 5266 ± 906 | 8 | – | – | – | – | – | – | – | – |
| CCCC[C@H](NC(=O)[C@@H](NC(=O)[C@H](CC(=O)O)NC(=O)[C@H](CCC(N)=O)NC(=O)[C@H](CC(C)C)NC(=O)[C@H](CC(C)C)NC(=O)[C@H](CCCCN)NC(=O)[C@H](CCCNC(=N)N)NC(=O)[C@H](C)NC(=O)[C@H](CO)NC(=O)[C@H](CC(C)C)NC(=O)[C@H](CCC(N)=O)NC(=O)[C@H](CC)NC(=O)[C@H](CC(C)C)NC(=O)[C@@H](NC(=O)[C@H](CCCCN)NC(=O)[C@H](CCCNC(=N)N)NC(=O)[C@H](Cc1ccc(O)cc1)NC(=O)[C@H](CCCNC(=N)N)NC(=O)[C@H](CC(N)=O)NC(=O)[C@@H](NC(=O)[C@H](Cc1ccc(Cl)cc1)NC(=O)[C@@H](NC(=O)[C@H](C)NC(=O)[C@H](CC(=O)O)NC(=O)[C@@H](CCCNC(=N)N)NC(=O)[C@H](Cc1ccc(O)cc1)NC(=O)Cc1ccccc1)[C@@H](C)CC)[C@@H](C)O)C(C)C)[C@@H](C)CC)C(=O)N[C@H](CCCNC(=N)N)C(=O)N[C@@H](CCCCNC(=N)N)C(N)=O [Peptide 1, [PhAc^0, D-Arg^2, Phe(pCl)^6, Arg^9, Abu^15, Nle^27, D-Arg^28, Har^29]hGH-RH(1–29)NH2] (PhAc-Y[dR]DAI[Phe(4-Cl)]TNRYRKVL[Abu]QLSARKLLQDI[Nle][dR][hArg]-NH2) | – | – | – | – | 1329 ± 327** mm^3 | 3403 ± 584** mm^3 | 4810 ± 645 | 7 | 2924 ± 654 mm^3 | 4373 ± 381** mm^3 | 6964 ± 676 | 6 | 82.4 ± 29.1** mm^3 | 64.0 ± 28.7 | 4 | equally strong inhibitory effect | 890 ± 322* mm^3 | 1354 ± 480 | 817 ± 323** mm^3 | 1.4 ± 0.7 |
